Earlier results on one molecule are cited in paper PMC12844998, “Bridging the Knowledge Gap in Harmaline’s Pharmacological Properties: A Focus on Thermodynamics and Kinetics” (Pharmaceutics, 2025).

For the series the following is noted: source not stated; cited from earlier work.

For `CCCCCC` [Hex, n-Hexane], the logP (commonly the decadic logarithm of the partition coefficient of the neutral form, usually between octanol and water) is listed as 3.5.
